Tests used:
[1] = system: P. gingivalis (Pg) biofilm; assay: Pg biofilm formation induced by Fn AI-2, crystal violet staining; format: cell-based, P. gingivalis (ATCC 33277)
Experimental: To test biofilm formation by Pg, a test was performed in the same manner as in Example 3. That is, a Pg culture broth (2 ml; negative control group, the number of bacteria: 4×10^8/ml), a mixture of Pg culture broth (2 ml) and Fn AI-2 (10% (v/v) with respect to the total volume of the mixture with Pg culture broth), or a mixture of Pg culture broth (2 ml) and Fn AI-2 (10% (v/v) with respect to the total volume of the mixture with Fn culture broth) and D-gal (2 mM) was added to a 24-well plate with a glass slip (round, 12 mm radius), and cultured under anaerobic conditions for 48˜72 hours. For comparison, 2 μM of the furanone compound [(5Z)-4-bromo-5-(bromomethylene)-2(5H)-furanone] was used instead of D-gal (2 mM) to perform the same test.
Biofilms formed on the cover slips were stained with 10% crystal violet [Tris(4-(dimethylamino)phenyl)methylium chloride] for 10 minutes, washed three times with PBS, and destained with 1 ml of acetone-alcohol (20:80, vol/vol). The optical density at 590 nm of the destaining solution containing crystal violet was measured using a microplate reader (a Wallac Victor3 microtiter, PerkinElmer Life Sciences, Waltham, Mass.). The smaller optical density (OD590) measured at 590 nm represents more inhibition of biofilm formation, that is, higher quorum sensing inhibitory effect of the used QSI candidate.

S. mutans (Sm) biofilm = assay: S. mutans biofilm formation, fluorescence staining (confocal); format: cell-based, Streptococcus mutans (ATCC 25175); details: D-gal 200 mM vs furanone compound 20 μM
Experimental: Further, the inhibitory effect of D-gal on Sm biofilm formation was examined by fluorescent staining. 2 ml (2×10^7/ml) of Sm culture broth was used, and 200 mM of D-gal and 20 μM of the furanone compound were used. Biofilms formed on the cover slip were stained with fluorescent materials using the live/dead-BacLight viability kit (Invitrogen, Grand Island, N.Y., USA) and observed using a confocal microscope (Carl Zeiss, LSM 700). […] Fluorescence intensities of the obtained individual fluorescence images were quantified using ZEN 2010 program of a confocal microscope, and shown in FIG. 16.

## O=C[C@H](O)[C@@H](O)[C@@H](O)[C@H](O)CO [D-gal, D-galactose]
[1]; Pg + Fn AI-2 10% (v/v), D-gal 2 mM, 48-72 h, Pg/AI-2 control 2.00, Pg 0.66
  OD590 nm: 1.24
[1]; crystal violet, D-gal 2 mM vs furanone 2 μM
  inhibitory effect on Pg biofilm formation, in words: equivalent to that of the furanone compound
S. mutans (Sm) biofilm
  inhibitory effect on Sm biofilm formation, in words: superior to that of the furanone compound
